The numbers were not newly measured in patent US20050266081A1, “Antimicrobial silver hydrogels” (priority 2004, published 2005), which cites them from elsewhere.

This series relates to skin cell respiration. The conditions noted are these: application of 1 to 10 mg/ml of silver; probable factor in the interference of wound healing.

In the case of silver, the “inhibition of skin cell respiration” value was 30%.
